Results: patent publication US20160369307A1, “METHOD OF INCREASING BIOMASS AND LIPID CONTENT IN A MICRO-ORGANISM AND A GENETICALLY MODIFIED MICRO-ORGANISM EXHIBITING ENHANCED AUTOPHAGY” (RELIANCE INDUSTRIES LIMITED, priority 2014, published 2016)
Where a SMILES comes first, the peptide text is derived from it. The star is where a group is joined. Cbz = O=C(OCc1ccccc1)*; CH2F = FC*

Tests used:
Chlorella sorokiniana [1] = test: Cell count of Chlorella sorokiniana under salinity stress with LiCl; type: cell-based; conditions: for Cell Density at Day 0: Day 0, day of salinity exposure (baseline); for Cell Density at Day 4: Day 4 of salinity stress
Method: 5mM LiCl was added to the TAP medium in the Experimental plates, but not in the Control. […]
Thus, it can be concluded that even in environmental stress conditions like exposure to salinity, treatment of the algal cells with LiCl prevents cll death, increases the biomass and lipid content of the algal cells, and concomitantly yields an increased amount of commercially valuable products like oils which are known to be produced by the algal cells.

Chlorella sorokiniana [2] = test: Recovery of Chlorella sorokiniana cultures after UV exposure with z-vad-fmk; type: cell-based
Method: 1×10^6 cells/ml of Chlorella sorokiniana were grown for three days in Tris-Acetate-Phosphate (TAP) medium and then exposed to UV at 250000 μJ/cm^2 for one minute using CL-1000 UV crosslinker. Immediately after UV exposure, 25 μM Z-vad-fmk was added to the TAP medium. The cultures were kept in the dark for 24 hours. Cultures were then exposed to light of 2000 lux for 12 hours followed by 12 hours of darkness.
FIG. 1B graphically represents the optical density at 750 nm of the Control cultures versus the optical density of the cultures treated with z-vad-fmk on the 13th day after UV exposure. From these figures it is clear that z-vad-fmk induced autophagy in the Chlorella sorokiniana cells helping the cells to recover from UV exposure. […] Thus, it can be concluded that even in environmental stress conditions like exposure to UV, treatment of the algal cells with z-vad-fmk prevents cell death, increases the biomass and lipid content of the algal cells, and concomitantly yields an increased amount of commercially valuable products like oils which are known to be produced by the algal cells.

[3] = TAP + 0.6% Salinity + 5 mM LiCl
[4] = TAP + 1.2% Salinity + 5 mM LiCl

SMILES | Cell counts versus Control after salinity stress (FIG. 2) (Chlorella sorokiniana [1]; 5 mM LiCl, after 4 days of salinity stress exposure) | Cell Density at Day 0 (Chlorella sorokiniana [1]; [3]) | Cell Density at Day 4 (Chlorella sorokiniana [1]; [3]) | Cell Density at Day 0 (Chlorella sorokiniana [1]; [4]) | Cell Density at Day 4 (Chlorella sorokiniana [1]; [4]) | Revival of bleached cultures after UV exposure (Chlorella sorokiniana [2]; 25 μM added to TAP medium immediately after UV 250000 μJ/cm^2 for one minute, 10 days) | Culture viability (plates, FIG. 1A) after UV exposure (Chlorella sorokiniana [2]; 25 μM, 13 days after UV exposure, versus Control plates)
[Cl-].[Li+] [LiCl] | higher cell counts | 2.6 × 10^6 cells/ml | 6.57 × 10^6 cells/ml | 2.6 × 10^6 cells/ml | 7.22 × 10^6 cells/ml | – | –
COC(=O)C[C@H](NC(=O)[C@H](C)NC(=O)[C@@H](NC(=O)OCc1ccccc1)C(C)C)C(=O)CF [z-vad-fmk] (Cbz-Val-Ala-Asp(OMe)-CH2F) | – | – | – | – | – | only z-vad-fmk treated cultures were seen to revive after 10 days | only the z-vad-fmk treated plates show viable cultures
